Test results published in EP4711470A1, “METHOD AND KIT FOR EVALUATING ENZYME ACTIVITY” (The University of Tokyo, priority 2023, dated 2025).

Key:
[1] = tested on: NADH:quinone oxidoreductase; experiment: Reactivity of Q-sHMRG with DT-diaphorase and increase in fluorescence; format: biochemical, microorganism; conditions: 1 µM probe, HEPES buffer pH 7.4, 25°C
Procedure: Q-sHMRG prepared in Synthesis Example 1 was dissolved to give a final concentration of 1 µM in a HEPES buffer (100 mM, pH 7.4) containing CaCl2 (1 mM), MgCl2 (1 mM), DTT (dithiothreitol, 100 µM), and Triton X-100 (250 µM), and an absorption spectrum was measured. Then, NADH (100 µM) and NADH:quinone oxidoreductase (10 µg/mL, Toyobo, DAD-311) were added, and after incubation at 25°C for 4 hours, an absorption spectrum was measured again. Results are shown in (A) of FIG. 1.
Also, Q-sHMRG prepared in Synthesis Example 1 was dissolved to give a final concentration of 1 µM in a HEPES buffer (100 mM, pH 7.4) containing CaCl2 (1 mM), MgCl2 (1 mM), DTT (dithiothreitol, 100 µM), and Triton X-100 (250 µM), and then NADH at various concentrations and NADH:quinone oxidoreductase (10 µg/mL) were added. After incubation at 25°C for 30 minutes, fluorescence intensity was measured. Results are shown in (B) and (C) of FIG. 1.

lactate dehydrogenase = experiment: Single-molecule coupled assay of lactate dehydrogenase oxidative activity in human plasma (microchamber array); format: biochemical; conditions: for S/N ratio compared with SiRWST-3 or Q-dsAMC as fluorescent probe: same experiment, with SiRWST-3, 100 µM 1-MeO-PMS in place of NADH:quinone oxidoreductase
Procedure: To a HEPES buffer (100 mM, pH 7.4) containing CaCl2 (1 mM), MgCl2 (1 mM), DTT (dithiothreitol, 100 µM), and Triton X-100 (200 µM), Q-sHMRG (30 µM), Q-HMRG (30 µM) or resazurin (30 µM), lactate (1 mM), NAD^+ (oxidized nicotinamide adenine dinucleotide, 500 µM), and NADH:quinone oxidoreductase (50 µg/mL, Toyobo, DAD-311) were added. Then, plasma obtained from a healthy human subject was added to give a 3000-fold dilution (preparation step, Step (A)). 40 µL of the solution (a pre-encapsulation aqueous solution) thus prepared was introduced into a microchamber array Simoa (registered trademark) disk (Quanterix). Subsequently, 80 µL of Fluorinert (registered trademark) FC-70 (Sigma-Aldrich) as a hydrophobic solvent was introduced into the microchamber array to remove an aqueous solution not introduced into wells, and thereby W/O droplets were formed in wells. After incubation at room temperature for 3 hours (reaction step, Step (B)), fluorescence images were acquired by an epifluorescence microscope Ti2 (Nikon) equipped with a 20× objective lens (Plan Apo 20×), an sCMOS camera (ORCA-Fusion C14440, Hamamatsu Photonics), a white light unit (X-Cite Xylis, Opto Science), and a motorized stage (fluorescence measurement step, Step (C)).

[2] = Fluorescence characteristics of reduction products; conditions: may be values measured in PBS at pH 7.4
Description: These fluorescence characteristics may be values measured, for example, in phosphate-buffered saline (PBS) at pH 7.4.

| fluorescence intensity increased by a reduction reaction by NADH:quinone oxidoreductase ([1]; NADH, NADH:quinone oxidoreductase 10 µg/mL (DAD-311)) | lowest quantity of NADH that the combination of probe and NADH:quinone oxidoreductase can detect ([1]; NADH:quinone oxidoreductase 10 µg/mL, 30 minutes) | ratio (S/N ratio) of fluorescence intensity of a well encapsulating lactate dehydrogenase to a well not encapsulating it (lactate dehydrogenase; 30 µM probe, lactate 1 mM, NAD+ 500 µM, plasma 3000-fold dilution, 3 hours, compared among Q-sHMRG, Q-HMRG and resazurin) | S/N ratio compared with SiRWST-3 or Q-dsAMC as fluorescent probe (lactate dehydrogenase) | molar extinction coefficient ([2]; at maximum absorption wavelength) | fluorescence quantum yield [2] | mathematical product of molar extinction coefficient and fluorescence quantum yield [2] | maximum absorption wavelength [2] | maximum fluorescence wavelength [2] | Structure (SMILES) |
| --- | --- | --- | --- | --- | --- | --- | --- | --- | --- |
| 235 fold | 0.01 µM | greater | larger | – | – | – | – | – | CC1=C(C)C(=O)C(C(C)(C)CC(=O)Nc2ccc3c(c2)Oc2cc(N)ccc2C32OCc3ccc(S(=O)(=O)O)cc32)=C(C)C1=O (stereo not shown) [Q-sHMRG] |
| – | – | – | – | 80000 L/mol/cm | 0.92 | 74000 | 498 nm | 517 nm | N=c1ccc2c(-c3ccc(S(=O)(=O)O)cc3CO)c3ccc(N)cc3oc-2c1 [sHMRG, 3',6'-diamino-3H-spiro[isobenzofuran-1,9'-xanthene]-5/6-sulfonic acid] |
| – | – | – | larger | – | – | – | – | – | O=c1ccc2[n+]([O-])c3ccc(O)cc3oc-2c1 [resazurin, reference compound] |
